Test results from patent US11919899B2, “Substituted 1-(3,3-difluoropiperidin-4-yl)-imidazo[4,5-c] quinolin-2-one compounds with blood-brain barrier penetrable capability” (priority 2020, dated 2024).

Tests used:
P-glycoprotein = P-glycoprotein (Homo sapiens, UniProt P08183); assay: P-glycoprotein efflux substrate; type: in vitro ADME; details: not told
[1] = Blood-brain barrier penetration (brain tissue to plasma concentration ratio); type: in vivo; details: ratio of concentration in brain tissue to plasma; rats or mice, four hours after dosing
Experimental: Four hours after dosing, rats or mice were sacrificed, blood and brain tissue were collected and the concentration of the test compound was analyzed. Brain permeation is defined as the ratio of the concentration of the compound in the brain tissue to the concentration in the plasma. P-glycoprotein and BCRP (Breast Cancer Resistance Protein) are the blood-brain barrier efflux proteins, the P-glycoprotein substrate (Efflux ratio>1.5) and/or BCRP substrate (Efflux ratio>1.5) is out of the brain.

BCRP = biological target: T1, BCRP (Homo sapiens, UniProt Q9UNQ0); assay: BCRP efflux substrate; type: in vitro ADME; details: not told
T1 sequence (Q9UNQ0 1-655): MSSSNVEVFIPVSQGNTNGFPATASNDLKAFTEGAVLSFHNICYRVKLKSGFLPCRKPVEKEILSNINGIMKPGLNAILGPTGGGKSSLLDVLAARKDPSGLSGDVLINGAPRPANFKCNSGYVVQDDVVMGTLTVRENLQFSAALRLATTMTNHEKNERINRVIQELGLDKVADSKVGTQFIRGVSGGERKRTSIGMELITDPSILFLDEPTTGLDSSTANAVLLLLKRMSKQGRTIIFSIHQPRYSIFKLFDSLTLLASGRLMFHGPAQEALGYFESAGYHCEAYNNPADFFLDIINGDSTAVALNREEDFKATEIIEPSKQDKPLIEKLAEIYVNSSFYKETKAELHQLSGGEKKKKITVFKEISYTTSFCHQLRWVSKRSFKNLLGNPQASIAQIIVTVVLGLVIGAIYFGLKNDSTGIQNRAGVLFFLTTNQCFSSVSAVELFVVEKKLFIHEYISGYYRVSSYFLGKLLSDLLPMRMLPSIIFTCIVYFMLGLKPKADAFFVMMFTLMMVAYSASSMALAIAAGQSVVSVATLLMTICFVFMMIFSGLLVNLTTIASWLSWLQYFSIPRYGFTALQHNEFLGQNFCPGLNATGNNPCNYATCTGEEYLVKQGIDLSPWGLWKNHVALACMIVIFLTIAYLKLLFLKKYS

P-glycoprotein, sequence (P08183 whole entry): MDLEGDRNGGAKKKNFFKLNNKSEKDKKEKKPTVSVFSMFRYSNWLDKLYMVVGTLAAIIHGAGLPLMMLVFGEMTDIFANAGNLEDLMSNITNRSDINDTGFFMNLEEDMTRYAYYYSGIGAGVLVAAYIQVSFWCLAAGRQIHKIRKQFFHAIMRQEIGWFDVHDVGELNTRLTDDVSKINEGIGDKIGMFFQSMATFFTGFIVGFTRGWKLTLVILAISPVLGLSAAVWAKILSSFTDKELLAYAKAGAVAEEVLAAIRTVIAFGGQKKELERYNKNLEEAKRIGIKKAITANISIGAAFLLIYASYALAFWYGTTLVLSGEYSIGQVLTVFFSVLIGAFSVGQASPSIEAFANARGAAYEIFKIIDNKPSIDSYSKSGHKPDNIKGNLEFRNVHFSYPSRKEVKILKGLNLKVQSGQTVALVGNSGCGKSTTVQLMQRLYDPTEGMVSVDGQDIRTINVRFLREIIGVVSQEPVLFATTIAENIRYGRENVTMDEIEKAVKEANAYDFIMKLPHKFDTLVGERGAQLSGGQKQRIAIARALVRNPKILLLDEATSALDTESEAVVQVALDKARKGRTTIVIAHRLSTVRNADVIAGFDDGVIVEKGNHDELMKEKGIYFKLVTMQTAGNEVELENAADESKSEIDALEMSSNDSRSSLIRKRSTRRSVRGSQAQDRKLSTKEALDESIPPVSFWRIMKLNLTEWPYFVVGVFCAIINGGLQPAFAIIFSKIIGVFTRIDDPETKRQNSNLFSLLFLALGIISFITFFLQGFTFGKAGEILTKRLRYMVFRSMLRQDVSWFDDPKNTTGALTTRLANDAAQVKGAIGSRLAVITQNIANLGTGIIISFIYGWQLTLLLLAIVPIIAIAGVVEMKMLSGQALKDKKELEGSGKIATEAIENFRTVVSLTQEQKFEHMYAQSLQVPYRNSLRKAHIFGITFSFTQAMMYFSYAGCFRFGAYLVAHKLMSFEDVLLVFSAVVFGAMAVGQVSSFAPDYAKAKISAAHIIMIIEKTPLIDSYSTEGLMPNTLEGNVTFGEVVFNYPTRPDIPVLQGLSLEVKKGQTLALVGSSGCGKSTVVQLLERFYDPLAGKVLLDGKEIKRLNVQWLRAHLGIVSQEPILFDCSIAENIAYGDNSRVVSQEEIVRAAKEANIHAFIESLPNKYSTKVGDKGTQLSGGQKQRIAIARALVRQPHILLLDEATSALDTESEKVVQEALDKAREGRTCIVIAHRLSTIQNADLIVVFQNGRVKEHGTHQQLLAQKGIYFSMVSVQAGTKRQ

| SMILES | efflux ratio (P-glycoprotein) | Kp at 4 h [1] | efflux ratio (BCRP) |
| --- | --- | --- | --- |
| CCN1CCC(n2c(=O)n(C)c3cnc4ccc(-c5ccc(OC)nc5)cc4c32)C(F)(F)C1 (racemic) [Compound 2, (R/S)-1-(1-ethyl-3,3-difluoropiperidin-4-yl)-8-(6-methoxypyridin-3-yl)-3-methyl-1,3-dihydro-2H-imidazo[4,5-c]quinolin-2-one] | < 1 | > 0.3 | < 1 |
| COc1ccc(-c2ccc3ncc4c(c3c2)n(C2CCN(C(C)C)CC2(F)F)c(=O)n4C)cn1 (racemic) [Compound 3, (R/S)-1-(3,3-difluoro-1-isopropylpiperidin-4-yl)-8-(6-methoxypyridin-3-yl)-3-methyl-1,3-dihydro-2H-imidazo[4,5-c]quinolin-2-one] | < 1 | > 0.3 | < 1 |
| CCOc1ccc(-c2ccc3ncc4c(c3c2)n(C2CCN(C)CC2(F)F)c(=O)n4C)cn1 (racemic) [Compound 4, (R/S)-1-(3,3-difluoro-1-methylpiperidin-4-yl)-8-(6-ethoxypyridin-3-yl)-3-methyl-1,3-dihydro-2H-imidazo[4,5-c]quinolin-2-one] | < 1 | > 0.3 | < 1 |
| COc1ccc(-c2cc3c(cc2F)ncc2c3n(C3CCN(C)CC3(F)F)c(=O)n2C)cn1 (racemic) [Compound 5, (R/S)-1-(3,3-difluoro-1-methylpiperidin-4-yl)-7-fluoro-8-(6-methoxypyridin-3-yl)-3-methyl-1,3-dihydro-2H-imidazo[4,5-c]quinolin-2-one] | < 1 | > 0.3 | < 1 |
| CC(C)Oc1ccc(-c2ccc3ncc4c(c3c2)n(C2CCN(C)CC2(F)F)c(=O)n4C)cn1 (racemic) [Compound 7, (R/S)-1-(3,3-difluoro-1-methylpiperidin-4-yl)-8-(6-isopropoxypyridin-3-yl)-3-methyl-1,3-dihydro-2H-imidazo[4,5-c]quinolin-2-one] | < 1 | > 0.3 | < 1 |
| CN1CCC(n2c(=O)n(C)c3cnc4ccc(-c5ccc(N(C)C)nc5)cc4c32)C(F)(F)C1 (racemic) [Compound 8, (R/S)-1-(3,3-difluoro-1-methylpiperidin-4-yl)-8-(6-(dimethylamino)pyridin-3-yl)-3-methyl-1,3-dihydro-2H-imidazo[4,5-c]quinolin-2-one] | < 1 | > 0.3 | < 1 |
| CN1CCC(n2c(=O)n(C)c3cnc4ccc(-c5ccc(OC6CC6)nc5)cc4c32)C(F)(F)C1 (racemic) [Compound 10, (R/S)-8-(6-cyclopropoxypyridin-3-yl)-1-(3,3-difluoro-1-methylpiperidin-4-yl)-3-methyl-1,3-dihydro-2H-imidazo[4,5-c]quinolin-2-one] | < 1 | > 0.3 | < 1 |
| CN1CCC(n2c(=O)n(C)c3cnc4ccc(-c5ccc(N6CC(N(C)C)C6)nc5)cc4c32)C(F)(F)C1 (racemic) [Compound 11, (R/S)-1-(3,3-difluoro-1-methylpiperidin-4-yl)-8-(6-(3-(dimethylamino)azetidin-1-yl)pyridin-3-yl)-3-methyl-1,3-dihydro-2H-imidazo[4,5-c]quinolin-2-one] | < 1 | > 0.3 | < 1 |
| CN1CCC(n2c(=O)n(C)c3cnc4ccc(-c5ccc(N6CC7C6CCN7C)nc5)cc4c32)C(F)(F)C1 (racemic) [Compound 13, (R/S)-1-(3,3-difluoro-1-methylpiperidin-4-yl)-3-methyl-8-(6-((1R,5R/1S,5S)-(2-methyl-2,6-diazabicyclo[3.2.0]heptan-6-yl)pyridin-3-yl)-1,3-dihydro-2H-imidazo[4,5-c]quinolin-2-one] | < 1 | > 0.3 | < 1 |
| CCN1CC[C@@H](n2c(=O)n(C)c3cnc4ccc(-c5ccc(OC)nc5)cc4c32)C(F)(F)C1 [Compound 15, (R)-1-(1-ethyl-3,3-difluoropiperidin-4-yl)-8-(6-methoxypyridin-3-yl)-3-methyl-1,3-dihydro-2H-imidazo[4,5-c]quinolin-2-one] | < 1 | > 0.3 | < 1 |

Next, values leading:

| efflux ratio (P-glycoprotein) | Kp at 4 h [1] | efflux ratio (BCRP) | SMILES |
| --- | --- | --- | --- |
| < 1 | > 0.3 | < 1 | COc1ccc(-c2ccc3ncc4c(c3c2)n([C@@H]2CCN(C(C)C)CC2(F)F)c(=O)n4C)cn1 [Compound 16, (R)-1-(3,3-difluoro-1-isopropylpiperidin-4-yl)-8-(6-methoxypyridin-3-yl)-3-methyl-1,3-dihydro-2H-imidazo[4,5-c]quinolin-2-one] |
| < 1 | > 0.3 | < 1 | CCOc1ccc(-c2ccc3ncc4c(c3c2)n([C@@H]2CCN(C)CC2(F)F)c(=O)n4C)cn1 [Compound 17, (R)-1-(3,3-difluoro-1-methylpiperidin-4-yl)-8-(6-ethoxypyridin-3-yl)-3-methyl-1,3-dihydro-2H-imidazo[4,5-c]quinolin-2-one] |
| < 1 | > 0.3 | < 1 | COc1ccc(-c2cc3c(cc2F)ncc2c3n([C@@H]3CCN(C)CC3(F)F)c(=O)n2C)cn1 [Compound 18, (R)-1-(3,3-difluoro-1-methylpiperidin-4-yl)-7-fluoro-8-(6-methoxypyridin-3-yl)-3-methyl-1,3-dihydro-2H-imidazo[4,5-c]quinolin-2-one] |
| < 1 | > 0.3 | < 1 | CC(C)Oc1ccc(-c2ccc3ncc4c(c3c2)n([C@@H]2CCN(C)CC2(F)F)c(=O)n4C)cn1 [Compound 20, (R)-1-(3,3-difluoro-1-methylpiperidin-4-yl)-8-(6-isopropoxypyridin-3-yl)-3-methyl-1,3-dihydro-2H-imidazo[4,5-c]quinolin-2-one] |
| < 1 | > 0.3 | < 1 | CN1CC[C@@H](n2c(=O)n(C)c3cnc4ccc(-c5ccc(N(C)C)nc5)cc4c32)C(F)(F)C1 [Compound 21, (R)-1-(3,3-difluoro-1-methylpiperidin-4-yl)-8-(6-(dimethylamino)pyridin-3-yl)-3-methyl-1,3-dihydro-2H-imidazo[4,5-c]quinolin-2-one] |
| < 1 | > 0.3 | < 1 | CN1CC[C@@H](n2c(=O)n(C)c3cnc4ccc(-c5ccc(OC6CC6)nc5)cc4c32)C(F)(F)C1 [Compound 23, (R)-8-(6-cyclopropoxypyridin-3-yl)-1-(3,3-difluoro-1-methylpiperidin-4-yl)-3-methyl-1,3-dihydro-2H-imidazo[4,5-c]quinolin-2-one] |
| < 1 | > 0.3 | < 1 | CN1CC[C@@H](n2c(=O)n(C)c3cnc4ccc(-c5ccc(N6CC(N(C)C)C6)nc5)cc4c32)C(F)(F)C1 [Compound 24, (R)-1-(3,3-difluoro-1-methylpiperidin-4-yl)-8-(6-(3-(dimethylamino)azetidin-1-yl)pyridin-3-yl)-3-methyl-1,3-dihydro-2H-imidazo[4,5-c]quinolin-2-one] |
| < 1 | > 0.3 | < 1 | CN1CC[C@@H](n2c(=O)n(C)c3cnc4ccc(-c5ccc(N6C[C@@H]7[C@H]6CCN7C)nc5)cc4c32)C(F)(F)C1 [Compound 26] |
| < 1 | > 0.3 | < 1 | CN1CC[C@@H](n2c(=O)n(C)c3cnc4ccc(-c5ccc(N6C[C@H]7[C@@H]6CCN7C)nc5)cc4c32)C(F)(F)C1 [Compound 27] |
| < 1 | > 0.3 | < 1 | CCN1CC[C@H](n2c(=O)n(C)c3cnc4ccc(-c5ccc(OC)nc5)cc4c32)C(F)(F)C1 [Compound 29, (S)-1-(1-ethyl-3,3-difluoropiperidin-4-yl)-8-(6-methoxypyridin-3-yl)-3-methyl-1,3-dihydro-2H-imidazo[4,5-c]quinolin-2-one] |
| < 1 | > 0.3 | < 1 | COc1ccc(-c2ccc3ncc4c(c3c2)n([C@H]2CCN(C(C)C)CC2(F)F)c(=O)n4C)cn1 [Compound 30, (S)-1-(3,3-difluoro-1-isopropylpiperidin-4-yl)-8-(6-methoxypyridin-3-yl)-3-methyl-1,3-dihydro-2H-imidazo[4,5-c]quinolin-2-one] |
| < 1 | > 0.3 | < 1 | CCOc1ccc(-c2ccc3ncc4c(c3c2)n([C@H]2CCN(C)CC2(F)F)c(=O)n4C)cn1 [Compound 31, (S)-1-(3,3-difluoro-1-methylpiperidin-4-yl)-8-(6-ethoxypyridin-3-yl)-3-methyl-1,3-dihydro-2H-imidazo[4,5-c]quinolin-2-one] |
